Reference: patent publication US8318950B2, “N-acyl amino acid derivatives, a method for the preparation thereof, a pharmaceutical composition and use thereof as anti-allergic, anti-inflammatory and hypolipidemic agents” (Otkrytoe Aktsionernoe Obschestvo-Otechestvennye Lekarstva, priority 2005, dated 2012)

Columns and labels:
[1] = tested on: guinea pig blood basophils; assay: In vitro ovalbumin (OA)-induced blood basophil degranulation of immunized guinea pig; assay type: cell-based
Experimental: Leukocytes from guinea pig blood were isolated according to the Freemel's method [Immunologicheskiye Metody under edition of G. Frimel/Moscow., “Meditsina” publishers, 1987, p. 222 in the inventor's modification].
Guinea pigs of both sexes weighing from 600 to 800 g were used to conduct the test. The animals were once immunized with a mixture of 10 μg ovalbumin and 100 mg aluminum hydroxide per one animal according to Andersson [Anderson P. Antigen-induced bronchial anaphylaxis in actively sensitized guinea-pigs.//Allergy. 1980. Vol. 35. P. 63-71].
Under ester anesthesia, 15 ml blood were drawn from guinea pig heart. Double precipitation of cells using EDTA and a citrate-containing precipitating liquid was used to isolate basophils in the leukocyte suspension.
Blood was mixed with 5% EDTA.Na2 2H2O (“Sigma”) solution at 9:1 ratio and in 30 minutes it was subjected to mild centrifugation (for 12 minutes at 80 g). Supernatant was collected and centrifuged for 15 minutes at 500 g.
To the remaining cells, a citrate-containing precipitating liquid (3) was added at proportion 3:10 (it was thermostated at 37° C. for 30 minutes). A supernatant fraction enriched by leukocytes was centrifuged for 7 minutes at 100 g. To leukocyte precipitate, 0.85% NaCl solution was added and cellular concentration was brought to 30×10^3 μl.
Protocol of the in vitro basophil degranulation test [Spravochnil po klinicheskim laboratomym metodam issledovaniya (A reference book on clinical-laboratory examination methods)/Edited by E. A. Cost/Moscow, “Meditsina” publishers, 1975, p. 130].
For the test, a centrifuge tube (3 tubes per each sample) was filled with 300 μl cellular suspension, then salt solution of a tested compound (or a salt solution in the control of spontaneous and maximum degranulation) was added and pre-incubated at 37° C. for 15 minutes, then into each tube 300 μl 1% OA solution was added (in the control of spontaneous degranulation a salt solution in the same amount was added) and once more pre-incubated at 37° C. for 10 minutes. Functional leukocyte concentration was 10^4/μl. Samples (100 μl) were taken off from each tube into separate tubes to assess a complete basophil degranulation, and to the remained cells, a cooled salt solution was added (5 ml into each tube) to arrest degranulation reaction, then the tubes were centrifuged for 7 min at 100 g, and from precipitate, preparations for microscopy were prepared. The preparations were fixed and stained according to the method of Seder et al. [Seder R. A. et al. Mouse splenic and bone marrow cell populations that express high—affinity Fcε receptors and produce interleukin-4 are highly enriched in basophils.//Proc. Natl. Acad. USA, 1991, V. 88, P. 2835-2839].
In order to detect a specific basophil granulation, the dye 0.5% alcyanic blue (pH 1.0) was used, nuclei were additionally stained with safranin (0.1% solution in 1% acetic acid). The preparations were used to assess a total degranulation inhibition.
A total degranulation inhibition (DI) (%) was calculated according to the formula: […]
max—% of degranulated basophils at the maximum degranulation (OA)
spontaneous—% of degranulated basophils in spontaneous degranulation (control)
experimental—% of degranulated basophils following exposure to the tested compound.
Assessment of a Complete Basophil Degranulation
Samples selected following basophil degranulation test (100 μl each) were poured into tubes with the dye (0.5% alcyane blue, pH 1.0) at ratio 1:1. Staining was carried out at room temperature for not less than 50 min. Stained basophils were calculated using the Fooks-Rosenthal chamber. Inhibition of a complete basophil degranulation (ICD) was calculated according to the formula: ICD(%)=1−[(Mm(c)−Mm(exper.)]/Mm(c)−Mm(OA)]×100, wherein
M m (c)—mean (by three samples) basophil number in the spontaneous basophil degranulation test
M±m (OA)—mean (by three samples) basophil number in the maximum antigen-induced basophil degranulation test; […]

[2] = tested on: antigen-induced bronchial spasm in sensitized guinea pigs; assay: Systemic anaphylaxis in vivo: antigen-induced bronchial spasm in ovalbumin-sensitized conscious guinea pigs; parameters: species or system guinea pig
Description: A bronchial spasm model in conscious guinea pigs actively sensitized by exposure to aerosol ovalbumin as an antigen was used [Kovaleva V. L. “Metodicheskiye ukazaniya po izucheniyu bronkholiticheskikh I protivovospalitel'nykh sredstv.//Rukovodstvo po experimental'nomy (doklinicheskomu) izucheniyu novykh pharmacologicheskikh veshchestv, Moscow. 2000. pp. 242-250].
Guinea pigs were sensitized by ovalbumin according to the method of Andersson [Anderson P. Antigen-induced bronchial anaphylaxis in actively sensitized guinea-pigs.//Allergy. 1980. Vol. 35. P. 63-71] and in 1-2 months following sensitization, bronchial spasm was induced by aerosol administration of albumin booster dose (3 mg/kg in 1 ml normal saline).
In test groups, guinea pigs were for three days administered with tested compounds at doses 10 μg/kg, 50 μg/kg, and 150 μg/kg, using a probe. In the other group of experiments, the tested compounds at dose 50 μg/kg (in 1 ml normal saline) were administered nasally (using a nebulizer) also once daily for three days. The control group was administered with normal saline. One hour post the last administration of substances, ovalbumin was administered by inhalation using a nebulizer, and intensity and duration (in seconds) of bronchial spasm reaction in animals was assessed.

[3] = tested on: endogenous hypercholesterolemia in guinea pigs; assay: Model of endogenous hypercholesterolemia in guinea pigs (fat loading); assay type: in vivo, guinea pig; parameters: Serum total cholesterol / Serum total triglyceride levels: unit not given here; details: for Serum total cholesterol / Serum total triglyceride levels: fat loading + compound 500 μg/kg orally
Experimental: The study was carried out on male guinea pigs (Aguti line) weighing 304±25 g. The experiment lasted 31 days. The control group included 6 guinea pigs (intact animals). The compounds studied were administered from day 1 of the experiment (from day 1 of administering fat loading).
The animals of experimental groups received orally for 31 days a compound studied and fat loading. The compound studied at doses indicated below was administered in the form of an aqueous solution (0.5 ml per an animal); fat loading (a mixture of porcine fat and preliminary heated corn oil at 4:1 ratio by volume, at the rate of 5 ml/kg weight 0.5 h post administering the substance studied.
1) “control”—intact animals;
2) “fat”—animals that received fat loading only
3) “compound IV”—animals that received fat loading+compound IV at dose 500 μg/kg body weight;
4) “compound V”—animals that received fat loading+compound V at dose 500 μg/kg body weight.
Statistical processing was carried out using a mono-factorial analysis of variance.

[4] = by inhalation, 50 μg/kg, once daily for three days
[5] = intragastric, 10 μg/kg, three days
[6] = intragastric, 150 μg/kg, three days
[7] = day 31, blood serum, 500 μg/kg orally (Table 24)
[8] = day 31, blood serum, 500 μg/kg orally (Table 25)

With `O=C(O)CCCC(=O)N[C@@H](Cc1c[nH]cn1)C(=O)O` [Compound IV, N^α-glutaryl-L-histidine] the “Number of completely degranulated basophils” value (“Number” for short) ([1]; 10^−3 M) was 2.6 ± 2.6 %, the “Number” value ([1]; 10^−4 M) was 2.9 ± 1.6 % and the “Number” value ([1]; 10^−5 M) was 0%. The “Number” value ([1]; 10^−6 M) was 3.9 ± 0.6%, the “Number” value ([1]; 10^−7 M) was 9.1 ± 0.8% and the inhibition at 1000 µM ([1]; Cavia porcellus, 10^−3 M, read-out: Complete degranulation inhibition (CDI)) was 99.2 ± 11.2%. For the same molecule, the inhibition at 100 µM ([1]; Cavia porcellus, 10^−4 M, read-out: Complete degranulation inhibition (CDI)) was 99.5 ± 12%, the inhibition at 10 µM ([1]; Cavia porcellus, 10^−5 M, read-out: Complete degranulation inhibition (CDI)) was 114 ± 2.7% and the inhibition at 1 µM ([1]; Cavia porcellus, 10^−6 M, read-out: Complete degranulation inhibition (CDI)) was 90 ± 1.8%. For the same molecule, the inhibition at 0.1 µM ([1]; Cavia porcellus, 10^−7 M, read-out: Complete degranulation inhibition (CDI)) was 76.7 ± 1.5%, the “degranulation inhibition in the test of complete OA-induced degranulation” value ([1]; calcium free medium) was about 100% and the “Duration of acute phase” value [2, 4] was 0 s. For the same molecule, the “Duration of sub-acute phase” value [2, 4] was 400 ± 25 s, the “Duration of acute phase” value [2, 5] was 68.0 ± 54.7 s and the Total reaction time [2, 5] was 428.0 ± 75.0 s. The “Duration of acute phase” value [2, 6] was 72.0 ± 42.1 s, the Total reaction time [2, 6] was 337.0 ± 78.5 s and the Serum total cholesterol ([3]; Day 28) was 55.5 ± 6.3. The “Serum total triglyceride levels” value ([3]; Day 28) was 66.8 ± 6.7, the Serum total cholesterol ([3]; Day 31) was 49.2 ± 3.9 and the “Serum total triglyceride levels” value ([3]; Day 31) was 69.0 ± 13.4. The “lowered LDL cholesterol” value ([3]; by day 31 of the experiment) was 37.7%, the “lowered total cholesterol level” value ([3]; by day 31 of the experiment) was 33.9% and the Cholesterol, LDL [3, 7] was 42.1 ± 3.5 mg/100 ml. For the same molecule, the Cholesterol, Total [3, 7] was 49.2 ± 3.9 mg/100 ml, the Cholesterol, VLDL [3, 7] was 3 ± 0.71 mg/100 ml and the Triglycerides, LDL [3, 8] was 29.6 ± 2.4 mg/100 ml. It also gave a Triglycerides, Total [3, 8] of 69 ± 13.4 mg/100 ml and a Triglycerides, VLDL [3, 8] of 33.2 ± 12.3 mg/100 ml.
